This is an account of results in ChEMBL document CHEMBL5696442, “Discovery of type II inhibitors of TGFβ-activated kinase 1 (TAK1) and mitogen-activated protein kinase kinase kinase kinase 2 (MAP4K2)” (J Med Chem, 2015).

What is called inhibition is the change of the read-out against control, counted positive when it falls. The term residual activity denotes what remains of the control signal, in per cent. Read a low residual activity as little activity left.

Assay [1] addresses Serine/threonine-protein kinase WNK2 (Homo sapiens) (UniProt Q9Y3S1). In words: Inhibition of Wnk2 Lys2 labeling site in human Huh-7 cells at 1 uM by KiNativ Profiling analysis relative to control. The assay is classed as cell-based.
The target in assay [2] is T1, Dual specificity mitogen-activated protein kinase kinase 6 (Homo sapiens) (UniProt P52564).
T1 sequence (whole entry): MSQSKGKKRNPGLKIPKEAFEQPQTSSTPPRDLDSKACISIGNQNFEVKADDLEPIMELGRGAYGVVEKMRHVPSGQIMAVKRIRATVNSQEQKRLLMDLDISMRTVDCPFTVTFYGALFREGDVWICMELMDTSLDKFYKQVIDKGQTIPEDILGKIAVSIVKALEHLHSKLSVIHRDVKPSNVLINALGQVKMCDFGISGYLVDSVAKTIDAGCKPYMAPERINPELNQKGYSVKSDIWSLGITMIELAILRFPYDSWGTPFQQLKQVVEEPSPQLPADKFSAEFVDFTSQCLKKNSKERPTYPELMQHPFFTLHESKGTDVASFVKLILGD
The assay can be described thus: Inhibition of MAP2K6 Lys1 labeling site in human Huh-7 cell lysate at 1 uM by KiNativ Profiling analysis relative to control. The assay is classed as subcellular.

The target in assay [3] is Epidermal growth factor receptor (Homo sapiens) (UniProt P00533). In words: Inhibition of EGFR Lys1 labeling site harbouring GLWIPEGEKVKIPVAIKELR in human Huh-7 cell lysate at 1 uM by KiNativ Profiling analysis relative to control. The assay is classed as subcellular.
Epidermal growth factor receptor (Homo sapiens), sequence (P00533 whole entry): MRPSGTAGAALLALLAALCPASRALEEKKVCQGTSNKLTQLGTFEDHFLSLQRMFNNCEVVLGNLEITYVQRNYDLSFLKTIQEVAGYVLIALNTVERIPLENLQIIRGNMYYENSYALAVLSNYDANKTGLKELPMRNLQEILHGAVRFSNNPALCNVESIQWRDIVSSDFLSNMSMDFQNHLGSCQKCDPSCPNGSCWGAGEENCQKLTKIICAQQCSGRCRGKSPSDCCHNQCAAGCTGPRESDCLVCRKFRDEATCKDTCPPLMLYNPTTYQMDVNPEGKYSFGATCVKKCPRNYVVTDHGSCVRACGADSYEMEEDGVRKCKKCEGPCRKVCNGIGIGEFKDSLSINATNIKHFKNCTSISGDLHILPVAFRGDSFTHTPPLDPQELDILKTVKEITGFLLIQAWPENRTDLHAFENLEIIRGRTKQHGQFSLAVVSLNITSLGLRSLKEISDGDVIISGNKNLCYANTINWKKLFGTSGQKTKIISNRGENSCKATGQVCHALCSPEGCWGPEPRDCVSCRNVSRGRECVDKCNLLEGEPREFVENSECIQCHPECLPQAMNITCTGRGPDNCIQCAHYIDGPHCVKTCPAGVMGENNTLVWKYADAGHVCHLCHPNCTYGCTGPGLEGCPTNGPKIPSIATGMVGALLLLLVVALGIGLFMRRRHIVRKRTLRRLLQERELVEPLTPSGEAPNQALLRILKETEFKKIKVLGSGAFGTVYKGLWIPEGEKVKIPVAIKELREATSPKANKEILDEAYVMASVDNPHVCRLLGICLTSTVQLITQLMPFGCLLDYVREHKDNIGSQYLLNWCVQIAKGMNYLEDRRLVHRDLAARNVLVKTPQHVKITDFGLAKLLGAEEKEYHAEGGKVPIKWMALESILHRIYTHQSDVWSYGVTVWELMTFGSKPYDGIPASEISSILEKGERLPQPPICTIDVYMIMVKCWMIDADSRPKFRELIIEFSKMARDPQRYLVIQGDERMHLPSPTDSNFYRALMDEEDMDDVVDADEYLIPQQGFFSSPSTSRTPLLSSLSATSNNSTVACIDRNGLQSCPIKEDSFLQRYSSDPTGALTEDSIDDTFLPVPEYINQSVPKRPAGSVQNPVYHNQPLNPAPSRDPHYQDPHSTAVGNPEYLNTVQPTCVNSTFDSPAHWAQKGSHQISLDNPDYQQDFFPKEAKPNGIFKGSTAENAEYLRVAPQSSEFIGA
For assay [4], the target named is Phosphatidylinositol 4-kinase beta (Homo sapiens) (UniProt Q9UBF8). In words: Inhibition of PIK4CB (unknown origin) at 1 uM by Ambit Kinomescan binding assay relative to control; values are per cent of control.
Phosphatidylinositol 4-kinase beta (Homo sapiens), sequence (Q9UBF8 2-816 limits assumed): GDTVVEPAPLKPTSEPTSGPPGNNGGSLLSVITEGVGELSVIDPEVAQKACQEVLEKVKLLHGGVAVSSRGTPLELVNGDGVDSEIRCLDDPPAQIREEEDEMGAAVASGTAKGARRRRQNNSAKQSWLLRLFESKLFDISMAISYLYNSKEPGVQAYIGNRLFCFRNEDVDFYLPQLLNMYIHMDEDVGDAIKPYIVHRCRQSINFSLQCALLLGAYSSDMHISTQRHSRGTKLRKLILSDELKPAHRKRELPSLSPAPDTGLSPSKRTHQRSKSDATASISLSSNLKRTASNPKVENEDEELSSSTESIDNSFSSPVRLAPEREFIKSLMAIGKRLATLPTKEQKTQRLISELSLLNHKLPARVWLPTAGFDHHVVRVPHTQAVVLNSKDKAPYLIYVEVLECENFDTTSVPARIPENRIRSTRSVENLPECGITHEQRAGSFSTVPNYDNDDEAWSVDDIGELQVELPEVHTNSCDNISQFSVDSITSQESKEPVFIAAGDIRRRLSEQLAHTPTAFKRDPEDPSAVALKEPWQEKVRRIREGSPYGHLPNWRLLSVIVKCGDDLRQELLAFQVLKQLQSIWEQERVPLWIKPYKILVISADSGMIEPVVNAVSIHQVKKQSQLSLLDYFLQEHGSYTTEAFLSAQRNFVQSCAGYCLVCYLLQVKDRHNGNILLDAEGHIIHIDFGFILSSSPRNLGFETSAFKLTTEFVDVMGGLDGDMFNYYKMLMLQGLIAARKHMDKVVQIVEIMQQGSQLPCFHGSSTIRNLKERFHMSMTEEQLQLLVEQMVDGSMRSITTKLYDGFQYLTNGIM
Assay [5] addresses T2, Atrial natriuretic peptide receptor 2 (Homo sapiens) (UniProt P20594).
T2 sequence (whole entry): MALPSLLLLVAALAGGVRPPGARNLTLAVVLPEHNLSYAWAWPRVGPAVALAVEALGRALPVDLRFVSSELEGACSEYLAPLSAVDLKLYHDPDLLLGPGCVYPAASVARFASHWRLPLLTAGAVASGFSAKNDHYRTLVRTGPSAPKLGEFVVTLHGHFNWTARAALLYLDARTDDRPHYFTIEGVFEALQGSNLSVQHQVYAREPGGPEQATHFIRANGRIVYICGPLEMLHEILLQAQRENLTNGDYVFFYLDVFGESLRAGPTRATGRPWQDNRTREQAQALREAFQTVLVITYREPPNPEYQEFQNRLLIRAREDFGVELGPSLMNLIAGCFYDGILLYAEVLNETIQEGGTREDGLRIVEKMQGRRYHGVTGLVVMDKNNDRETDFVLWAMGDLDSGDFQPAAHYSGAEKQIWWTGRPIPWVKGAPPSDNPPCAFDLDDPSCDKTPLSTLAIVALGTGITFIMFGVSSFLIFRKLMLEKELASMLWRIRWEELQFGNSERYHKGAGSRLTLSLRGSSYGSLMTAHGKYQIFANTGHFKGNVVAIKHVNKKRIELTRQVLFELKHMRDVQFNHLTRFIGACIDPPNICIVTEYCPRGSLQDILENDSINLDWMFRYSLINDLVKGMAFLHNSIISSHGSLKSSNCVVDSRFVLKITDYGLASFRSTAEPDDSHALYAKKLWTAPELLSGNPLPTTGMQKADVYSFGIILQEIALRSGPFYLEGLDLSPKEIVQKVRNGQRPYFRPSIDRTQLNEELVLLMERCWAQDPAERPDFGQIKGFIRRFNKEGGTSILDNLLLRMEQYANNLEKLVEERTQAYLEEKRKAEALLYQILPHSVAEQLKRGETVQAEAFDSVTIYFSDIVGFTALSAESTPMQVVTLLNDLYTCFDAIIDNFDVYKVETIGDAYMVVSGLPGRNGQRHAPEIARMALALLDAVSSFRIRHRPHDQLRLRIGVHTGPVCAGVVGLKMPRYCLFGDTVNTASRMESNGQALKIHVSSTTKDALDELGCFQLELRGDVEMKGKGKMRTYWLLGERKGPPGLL
The assay can be described thus: Inhibition of ANPb Lys2 labeling site in human A-375 cells at 0.05 uM by KiNativ Profiling analysis relative to control. The assay is classed as cell-based.

Assay [6] deals with Serine/threonine-protein kinase tousled-like 2 (Homo sapiens) (UniProt Q86UE8). The assay can be described thus: Inhibition of TLK2 (unknown origin) at 10 uM by Ambit Kinomescan binding assay.
The target of assay [7] is STE20-like serine/threonine-protein kinase (Homo sapiens) (UniProt Q9H2G2). In words: Inhibition of SLK (unknown origin) at 10 uM by Ambit Kinomescan binding assay relative to control; values are per cent of control.
STE20-like serine/threonine-protein kinase (Homo sapiens), sequence (Q9H2G2 whole entry, looked up): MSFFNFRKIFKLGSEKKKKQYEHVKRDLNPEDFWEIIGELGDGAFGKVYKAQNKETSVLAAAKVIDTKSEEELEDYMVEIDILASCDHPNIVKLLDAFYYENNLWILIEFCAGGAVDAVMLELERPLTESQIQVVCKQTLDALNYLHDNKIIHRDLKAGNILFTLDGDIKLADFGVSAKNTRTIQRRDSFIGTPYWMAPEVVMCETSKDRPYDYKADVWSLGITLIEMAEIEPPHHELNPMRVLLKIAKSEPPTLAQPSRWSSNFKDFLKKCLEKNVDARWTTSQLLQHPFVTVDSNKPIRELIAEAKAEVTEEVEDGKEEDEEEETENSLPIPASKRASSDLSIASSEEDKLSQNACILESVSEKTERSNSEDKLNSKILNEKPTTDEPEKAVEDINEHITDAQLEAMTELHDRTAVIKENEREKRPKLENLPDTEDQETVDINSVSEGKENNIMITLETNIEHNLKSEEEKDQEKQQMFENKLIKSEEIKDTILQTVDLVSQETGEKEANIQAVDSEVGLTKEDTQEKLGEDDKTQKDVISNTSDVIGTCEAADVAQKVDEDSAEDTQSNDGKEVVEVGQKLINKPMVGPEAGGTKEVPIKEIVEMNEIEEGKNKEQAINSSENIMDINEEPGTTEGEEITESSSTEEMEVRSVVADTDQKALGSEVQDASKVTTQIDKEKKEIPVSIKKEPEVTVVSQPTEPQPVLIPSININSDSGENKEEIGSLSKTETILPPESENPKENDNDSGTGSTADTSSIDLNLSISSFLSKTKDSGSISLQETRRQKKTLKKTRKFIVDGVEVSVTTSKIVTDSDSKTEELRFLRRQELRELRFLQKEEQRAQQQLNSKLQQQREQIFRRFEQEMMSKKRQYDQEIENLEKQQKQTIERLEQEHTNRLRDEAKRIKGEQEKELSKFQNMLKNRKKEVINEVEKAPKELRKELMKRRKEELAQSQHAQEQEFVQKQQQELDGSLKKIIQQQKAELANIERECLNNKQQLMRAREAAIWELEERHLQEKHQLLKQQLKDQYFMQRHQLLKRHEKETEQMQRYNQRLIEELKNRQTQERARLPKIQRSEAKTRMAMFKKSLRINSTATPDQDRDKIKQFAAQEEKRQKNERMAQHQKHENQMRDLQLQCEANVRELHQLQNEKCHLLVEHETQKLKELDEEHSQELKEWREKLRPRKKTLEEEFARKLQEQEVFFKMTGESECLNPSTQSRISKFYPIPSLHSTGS
Assay [8] deals with Proto-oncogene tyrosine-protein kinase ROS (Homo sapiens) (UniProt P08922). The assay can be described thus: Inhibition of ROS1 (unknown origin) at 10 uM by Ambit Kinomescan binding assay.
For assay [9], the target named is T3, Mitogen-activated protein kinase kinase kinase kinase 2 (Homo sapiens) (UniProt Q12851).
T3 sequence (whole entry): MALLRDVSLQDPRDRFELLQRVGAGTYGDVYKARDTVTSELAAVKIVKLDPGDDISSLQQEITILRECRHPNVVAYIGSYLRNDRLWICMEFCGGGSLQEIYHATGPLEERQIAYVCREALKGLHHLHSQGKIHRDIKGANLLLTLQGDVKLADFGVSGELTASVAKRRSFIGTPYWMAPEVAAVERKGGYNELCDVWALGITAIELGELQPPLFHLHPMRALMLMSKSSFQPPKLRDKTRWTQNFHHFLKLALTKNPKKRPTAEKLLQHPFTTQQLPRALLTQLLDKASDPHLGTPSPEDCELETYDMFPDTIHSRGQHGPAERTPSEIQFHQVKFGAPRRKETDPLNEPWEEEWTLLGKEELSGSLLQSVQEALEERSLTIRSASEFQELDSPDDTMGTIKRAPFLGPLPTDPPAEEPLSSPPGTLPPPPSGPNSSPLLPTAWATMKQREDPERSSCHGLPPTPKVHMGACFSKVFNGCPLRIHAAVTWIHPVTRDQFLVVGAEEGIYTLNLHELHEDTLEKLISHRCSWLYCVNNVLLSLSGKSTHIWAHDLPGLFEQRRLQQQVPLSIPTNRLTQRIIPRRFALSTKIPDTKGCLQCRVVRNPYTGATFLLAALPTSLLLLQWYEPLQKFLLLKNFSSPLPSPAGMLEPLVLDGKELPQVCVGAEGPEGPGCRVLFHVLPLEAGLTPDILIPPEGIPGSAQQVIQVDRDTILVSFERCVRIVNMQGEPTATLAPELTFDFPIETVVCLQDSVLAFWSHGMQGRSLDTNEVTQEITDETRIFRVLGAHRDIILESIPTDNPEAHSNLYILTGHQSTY
The assay can be described thus: Inhibition of MAP4K2 (GCK) Lys1 labeling site in human A-375 cells at 5 uM by KiNativ Profiling analysis relative to control. The assay is classed as cell-based.

The target of assay [10] is Tyrosine-protein kinase ABL1 (Homo sapiens, UniProt P00519). In words: Inhibition of ABL Lys1 labeling site in human A-375 cells at 0.5 uM by KiNativ Profiling analysis relative to control. The assay is classed as cell-based.
Tyrosine-protein kinase ABL1, sequence (P00519 whole entry): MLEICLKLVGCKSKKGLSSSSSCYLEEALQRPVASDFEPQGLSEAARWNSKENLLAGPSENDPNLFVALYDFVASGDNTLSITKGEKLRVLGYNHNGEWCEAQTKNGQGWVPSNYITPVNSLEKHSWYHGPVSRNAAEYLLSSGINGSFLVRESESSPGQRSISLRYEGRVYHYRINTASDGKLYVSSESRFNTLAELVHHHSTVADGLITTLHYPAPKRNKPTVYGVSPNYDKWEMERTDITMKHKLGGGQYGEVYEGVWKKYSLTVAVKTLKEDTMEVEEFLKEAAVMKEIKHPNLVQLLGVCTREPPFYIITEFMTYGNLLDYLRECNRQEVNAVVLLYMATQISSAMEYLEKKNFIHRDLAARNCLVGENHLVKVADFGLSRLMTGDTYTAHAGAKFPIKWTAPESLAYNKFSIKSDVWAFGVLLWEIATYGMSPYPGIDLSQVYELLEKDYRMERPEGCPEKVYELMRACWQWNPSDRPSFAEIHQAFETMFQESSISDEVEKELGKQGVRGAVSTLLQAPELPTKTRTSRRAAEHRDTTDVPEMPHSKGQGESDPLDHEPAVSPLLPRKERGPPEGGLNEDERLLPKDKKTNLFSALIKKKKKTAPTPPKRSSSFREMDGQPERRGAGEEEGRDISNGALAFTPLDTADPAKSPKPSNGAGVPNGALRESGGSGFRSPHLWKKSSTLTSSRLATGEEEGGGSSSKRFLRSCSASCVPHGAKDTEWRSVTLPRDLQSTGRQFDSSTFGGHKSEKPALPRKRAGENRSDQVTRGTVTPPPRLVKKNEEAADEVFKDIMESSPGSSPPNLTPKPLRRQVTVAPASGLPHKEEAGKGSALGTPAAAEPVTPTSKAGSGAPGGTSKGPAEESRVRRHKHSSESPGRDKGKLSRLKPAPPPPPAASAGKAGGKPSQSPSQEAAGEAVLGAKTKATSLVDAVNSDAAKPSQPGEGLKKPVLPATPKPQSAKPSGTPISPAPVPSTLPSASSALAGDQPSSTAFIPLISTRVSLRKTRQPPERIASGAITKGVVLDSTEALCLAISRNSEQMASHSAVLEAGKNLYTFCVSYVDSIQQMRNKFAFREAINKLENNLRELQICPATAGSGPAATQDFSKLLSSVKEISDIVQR

The source made the active and inactive calls. The calls are words filed in the database; no cut-off is given here. A value given as a limit tells only on which side of the number the result lay.

As for `CNc1cc(Oc2cc(C(=O)Nc3cc(N4CCN(C)CC4)cc(C(F)(F)F)c3)ccc2C)ncn1`, the inhibition in assay [1] was 15.3%; in assay [2], 5.3%; in assay [3], 9.9%.

Compound `CCN1CCN(Cc2ccc(NC(=O)c3ccc(C)c(/C=C/c4cnc5[nH]ccc5c4OC)c3)cc2C(F)(F)F)CC1` registered a residual activity in assay [4] of 100%. The inhibition in assay [5] is -8.7%.

Take `CCN1CCN(Cc2ccc(NC(=O)c3ccc(C)c(Oc4ccnc5[nH]ccc45)c3)cc2C(F)(F)F)CC1`: the inhibition result in assay [6] and in assay [8] was “inactive” each time. Further, the residual activity in assay [7] was 2%. Further, the inhibition in [9] was over 99.5%; in assay [10], 85.5%.
